Assay results from US12240858B2 (ANBOGEN THERAPEUTICS, INC, priority 2021, dated 2025).
Converted amounts (≈) assume the structure as drawn. Counter-ions that a name gives are not always drawn. Like-named read-outs stand apart in the source and are kept apart here.

What was measured:
[1] = Weight loss before melting (TGA) of solid forms; format: physicochemical
[2] = Solubility 24 hrs in FaSSIF, FeSSIF, SGF, H2O; format: physicochemical; conditions: thermodynamic from solid
Description: In Table 3, “FaSSIF” stands for “Fasted state simulated intestinal fluid”; “FeSSIF” stands for “Fed state simulated intestinal fluid”; “SGF” stands for “Simulated gastric fluid”.

[3] = Stability of solid forms under stress conditions; format: physicochemical
[4] = Pharmacokinetics study, rat IV and PO; format: in vivo
[5] = FeSSIF (fed state simulated intestinal fluid), fessif
[6] = SGF (simulated gastric fluid), simulated gastric fluid, SGF
[7] = 20 mg/kg, listed as ABT-101 S0*

SMILES	Weight loss before melting (%) (TGA) [1] [wt %]	solubility at 24 h ([2]; FaSSIF (fasted state simulated intestinal fluid), fassif) [µg/mL]	solubility at 24 h [2, 5] [µg/mL]	solubility at 24 h [2, 6] [µg/mL]	solubility at 24 h ([2]; water, H2O) [µg/mL]	Stability ([3]; 25° C./60% RH, 1 week)	Stability ([3]; 40° C./75% RH, 1 week)	Stability ([3]; 80° C., 24 hrs)	increased Cmax, AUC and F (%) compared to amorphous form (ABT-101 S0) [4]	Cmax ([4]; 20 mg/kg) [ng/mL]	F (%) ([4]; 20 mg/kg)	Cmax [4, 7] [ng/mL]	F (%) [4, 7] [%]	Tmax [4, 7] [h]	half-life ([4]; rat, in vivo, po, 20 mg/kg) [h]	Tmax ([4]; rat, in vivo, po, 20 mg/kg, read-out: Tmax) [h]
CN(C)C/C=C/C(=O)Nc1cccc(-c2c(-c3ccccc3)oc3ncnc(N[C@H](CO)c4ccccc4)c23)c1 [Free Base, (S, E)-4-(dimethylamino)-N-(3-(4-(2-hydroxy-1-phenylethylamino)-6-phenylfuro[2,3-d]pyrimidin-5-yl)phenyl)but-2-enamide]	0.6	320 (≈ 600 µM)	410 (≈ 768 µM)	9100 (≈ 17100 µM)	20 (≈ 37.5 µM)	Stable	Stable	Stable								
CN(C)C/C=C/C(=O)Nc1cccc(-c2c(-c3ccccc3)oc3ncnc(NC(CO)c4ccccc4)c23)c1 (stereo not drawn) [Glycollate]	0.7		> 11300	> 10900		Stable	Unstable	Stable								
CN(C)C/C=C/C(=O)Nc1cccc(-c2c(-c3ccccc3)oc3ncnc(N[C@H](CO)c4ccccc4)c23)c1 [ABT-101 S0, (S, E)-4-(dimethylamino)-N-(3-(4-(2-hydroxy-1-phenylethylamino)-6-phenylfuro[2,3-d]pyrimidin-5-yl)phenyl)but-2-enamide]									1.9˜3 times	136	19	508	42	3.3	4.7	4

Continued, values first:

Weight loss before melting (%) (TGA) [1] [wt %]	solubility at 24 h ([2]; FaSSIF (fasted state simulated intestinal fluid), fassif) [µg/mL]	solubility at 24 h [2, 5] [µg/mL]	solubility at 24 h [2, 6] [µg/mL]	solubility at 24 h ([2]; water, H2O) [µg/mL]	Stability ([3]; 25° C./60% RH, 1 week)	Stability ([3]; 40° C./75% RH, 1 week)	Stability ([3]; 80° C., 24 hrs)	increased Cmax, AUC and F (%) compared to amorphous form (ABT-101 S0) [4]	Cmax ([4]; 20 mg/kg) [ng/mL]	F (%) ([4]; 20 mg/kg)	Cmax [4, 7] [ng/mL]	F (%) [4, 7] [%]	Tmax [4, 7] [h]	half-life ([4]; rat, in vivo, po, 20 mg/kg) [h]	Tmax ([4]; rat, in vivo, po, 20 mg/kg, read-out: Tmax) [h]	SMILES
0.5					Stable	Unstable	Stable									CN(C)C/C=C/C(=O)Nc1cccc(-c2c(-c3ccccc3)oc3ncnc(NC(CO)c4ccccc4)c23)c1 (stereo not drawn) [Succinate]
3.6					Stable	Stable	Stable									CN(C)C/C=C/C(=O)Nc1cccc(-c2c(-c3ccccc3)oc3ncnc(NC(CO)c4ccccc4)c23)c1 (stereo not drawn) [Hydrochloride]
